Source: patent publication US20080214599A1, “Use of Par-1/Par-4 Inhibitors for Treating or Preventing Vascular Diseases” (priority 2005, published 2008)

What was measured:
Assay type in all cases: in vivo, human
[1] = test system: CD165 (GP37); assay: Flow cytometry, platelet CD165 (GP37) in patients undergoing coronary stenting; design: CD165 (GP37), flow cytometry: unit not given here
Protocol: (§1) The study sought to compare the antiplatelet properties of prasugrel and clopidogrel in the frame of a Phase 2 randomized trial. Specifically, nine patients undergoing coronary stenting were randomized to one of three arms of prasugrel (40-60-60 mg loading, and 7.5-10-15 mg maintenance daily dose), or clopidogrel (300 mg/75 mg). Aspirin and GP IIb/IIIa inhibitors were allowed.

[2] = test system: CD151+CD14; assay: Flow cytometry, CD151+CD14 in patients undergoing coronary stenting; design: unit not given here
Protocol: as §1

[3] = test system: CD31 (PECAM-1); assay: Flow cytometry, platelet surface expression of CD31 (PECAM-1) in patients undergoing coronary stenting
Protocol: as §1

[4] = test system: CD40 ligand; assay: Flow cytometry, platelet CD40 ligand in patients undergoing coronary stenting; design: CD40 ligand, flow cytometry: unit not given here
Protocol: as §1

[5] = test system: CD62p (P-selectin); assay: Flow cytometry, platelet surface expression of CD62p (P-selectin) in patients undergoing coronary stenting; design: CD62p (P-selectin), flow cytometry: unit not given here
Protocol: as §1

[6] = test system: CD42 (GP-Ib); assay: Flow cytometry, platelet surface expression of CD42 (GP-Ib) in patients undergoing coronary stenting; design: CD42 (GP-Ib), flow cytometry: unit not given here
Protocol: as §1

[7] = test system: PAR-1/PAR-4 (WEDE15); assay: Flow cytometry, WEDE15 (PAR-1/PAR-4) in patients undergoing coronary stenting
Protocol: as §1

[8] = test system: PAR-1/PAR-4 (SPAN12); assay: Flow cytometry, SPAN12 (PAR-1/PAR-4) in patients undergoing coronary stenting
Protocol: as §1

[9] = test system: Thrombospondin; assay: Flow cytometry, platelet thrombospondin in patients undergoing coronary stenting; design: Thrombospondin, flow cytometry: unit not given here
Protocol: as §1

[10] = test system: platelets; assay: Ultegra Analyzer platelet function in stented patients; conditions: independent of the dosing regimen; vs patients treated with clopidogrel
Protocol: (§2) The study sought to compare the antiplatelet properties of prasugrel and clopidogrel in the frame of a Phase 2 randomized trial. Specifically, nine patients undergoing coronary stenting were randomized to one of three arms of prasugrel (40-60-60 mg loading, and 7.5-10-15 mg maintenance daily dose), or clopidogrel (300 mg/75 mg). Aspirin and GP IIb/IIIa inhibitors were allowed. […] Applicants believe the above results are significant and establish a correlation between use of CS-747 (prasugrel) and inhibition of the activity or activation of PAR-1 and/or PAR-4 receptors. […] The correlations or trends shown in table 1 are independent of aspirin or Gb-11b inhibitor use by some patients at baseline. Confounding effects by aspirin or GB-IIb/IIIA use at baseline should be absent at 30 days.

[11] = test system: GPIIb/IIIa activity with PAC-1 antibody; assay: GPIIb/IIIa activity with PAC-1 antibody in stented patients; conditions: independent of the dosing regimen; vs patients treated with clopidogrel
Protocol: as §2

[12] = test system: GPIIb/IIIa antigen; assay: Surface expression of GPIIb/IIIa antigen in stented patients; conditions: independent of the dosing regimen; vs patients treated with clopidogrel
Protocol: as §2

[13] = test system: platelets (ADP-induced aggregation); assay: ADP-induced platelet aggregation in stented patients; conditions: independent of the dosing regimen; vs patients treated with clopidogrel
Protocol: as §2

[14] = test system: platelets (collagen-induced aggregation); assay: Collagen-induced platelet aggregation in stented patients; conditions: independent of the dosing regimen; vs patients treated with clopidogrel
Protocol: as §2

[15] = 30 days after stent implantation
[16] = Baseline, patients undergoing coronary stenting
[17] = independent of the dosing regimen, vs patients treated with clopidogrel

SMILES: COC(=O)[C@H](c1ccccc1Cl)N1CCc2sccc2C1 [clopidogrel, reference compound]
- CD165 (GP37), flow cytometry ([1]; 4 hr after stent implantation): 17.8 ± 5.8
- CD165 (GP37), flow cytometry ([1]; 24 hr after stent implantation): 18.3 ± 4.2
- CD165 (GP37), flow cytometry [1, 15]: 19.7 ± 3.0
- CD165 (GP37), flow cytometry [1, 16]: 23.9 ± 5.2
- CD151+CD14, flow cytometry ([2]; 4 hr after stent implantation): 62.6 ± 14.4
- CD151+CD14, flow cytometry ([2]; 24 hr after stent implantation): 69.5 ± 22.4
- CD151+CD14, flow cytometry [2, 15]: 66.0 ± 9.5
- CD151+CD14, flow cytometry [2, 16]: 67.1 ± 14.5
- CD31 (PECAM-1), flow cytometry ([3]; 4 hr after stent implantation): 41.6 ± 17.3
- CD31 (PECAM-1), flow cytometry ([3]; 24 hr after stent implantation): 38.0 ± 18.9
- CD31 (PECAM-1), flow cytometry [3, 15]: 58.6 ± 8.4
- CD31 (PECAM-1), flow cytometry [3, 16]: 62.9 ± 12.2
- CD40 ligand, flow cytometry ([4]; 4 hr after stent implantation): 4.1 ± 1.3
- CD40 ligand, flow cytometry ([4]; 24 hr after stent implantation): 4.2 ± 1.3
- CD40 ligand, flow cytometry [4, 15]: 6.5 ± 1.6
- CD40 ligand, flow cytometry [4, 16]: 5.5 ± 1.3
- CD62p (P-selectin), flow cytometry ([5]; 4 hr after stent implantation): 10.0 ± 3.5
- CD62p (P-selectin), flow cytometry ([5]; 24 hr after stent implantation): 9.8 ± 3.6
- CD62p (P-selectin), flow cytometry [5, 15]: 9.6 ± 1.4
- CD62p (P-selectin), flow cytometry [5, 16]: 10.4 ± 3.4
- CD42 (GP-Ib), flow cytometry ([6]; 4 hr after stent implantation): 134.2 ± 37.3
- CD42 (GP-Ib), flow cytometry ([6]; 24 hr after stent implantation): 129.8 ± 37.6
- CD42 (GP-Ib), flow cytometry [6, 15]: 168.0 ± 48.0
- CD42 (GP-Ib), flow cytometry [6, 16]: 135.2 ± 35.1
- WEDE15 (PAR-1/PAR-4), flow cytometry ([7]; 4 hr after stent implantation): 20.9 ± 9.3
- WEDE15 (PAR-1/PAR-4), flow cytometry ([7]; 24 hr after stent implantation): 25.7 ± 9.6
- WEDE15 (PAR-1/PAR-4), flow cytometry [7, 15]: 16.5 ± 3.2
- WEDE15 (PAR-1/PAR-4), flow cytometry [7, 16]: 30.2 ± 10.9
- SPAN12 (PAR-1/PAR-4), flow cytometry ([8]; 4 hr after stent implantation): 16.2 ± 5.0
- SPAN12 (PAR-1/PAR-4), flow cytometry ([8]; 24 hr after stent implantation): 17.1 ± 5.3
- SPAN12 (PAR-1/PAR-4), flow cytometry [8, 15]: 6.2 ± 0.9
- SPAN12 (PAR-1/PAR-4), flow cytometry [8, 16]: 18.0 ± 4.8
- Thrombospondin, flow cytometry ([9]; 4 hr after stent implantation): 6.7 ± 2.0
- Thrombospondin, flow cytometry ([9]; 24 hr after stent implantation): 7.8 ± 2.8
- Thrombospondin, flow cytometry [9, 15]: 8.1 ± 1.3
- Thrombospondin, flow cytometry [9, 16]: 7.1 ± 2.0

SMILES: CC(=O)Oc1cc2c(s1)CCN(C(C(=O)C1CC1)c1ccccc1F)C2 (stereo not drawn) [prasugrel, 2-acetoxy-5-(α-cyclopropylcarbonyl-2-fluorobenzyl)-4,5,6,7-tetrahydrothieno[3,2-c]pyridine]
- CD165 (GP37), flow cytometry ([1]; 4 hr after stent implantation): 17.8 ± 5.6
- CD165 (GP37), flow cytometry ([1]; 24 hr after stent implantation): 15.8 ± 5.7
- CD165 (GP37), flow cytometry [1, 15]: 12.2 ± 2.8
- CD165 (GP37), flow cytometry [1, 16]: 24.7 ± 2.8
- Platelet inhibition by surface expression of GP37, compared with clopidogrel [1, 17]: more potent platelet inhibition
- Platelet inhibition by Ultegra Analyzer, compared with clopidogrel [10]: more potent platelet inhibition
- Platelet inhibition by GPIIb/IIIa activity with PAC-1 antibody, compared with clopidogrel [11]: more potent platelet inhibition
- CD151+CD14, flow cytometry ([2]; 4 hr after stent implantation): 60.1 ± 18.9
- CD151+CD14, flow cytometry ([2]; 24 hr after stent implantation): 62.7 ± 29.2
- CD151+CD14, flow cytometry [2, 15]: 61.8 ± 23.0
- CD151+CD14, flow cytometry [2, 16]: 73.0 ± 11.1
- CD31 (PECAM-1), flow cytometry ([3]; 4 hr after stent implantation): 52.5 ± 29.3
- CD31 (PECAM-1), flow cytometry ([3]; 24 hr after stent implantation): 52.8 ± 28.7
- CD31 (PECAM-1), flow cytometry [3, 15]: 24.6 ± 24.4
- CD31 (PECAM-1), flow cytometry [3, 16]: 69.9 ± 19.3
- Platelet inhibition by surface expression of PECAM-1, compared with clopidogrel [3, 17]: more potent platelet inhibition
- Platelet inhibition by surface expression of GPIIb/IIIa antigen, compared with clopidogrel [12]: more potent platelet inhibition
- CD40 ligand, flow cytometry ([4]; 4 hr after stent implantation): 4.8 ± 1.4
- CD40 ligand, flow cytometry ([4]; 24 hr after stent implantation): 4.6 ± 1.1
- CD40 ligand, flow cytometry [4, 15]: 3.7 ± 1.3
- CD40 ligand, flow cytometry [4, 16]: 6.9 ± 0.8
- Platelet inhibition by surface expression of CD40-ligand, compared with clopidogrel [4, 17]: more potent platelet inhibition
- Platelet inhibition by ADP-induced aggregation, compared with clopidogrel [13]: more potent platelet inhibition
- CD62p (P-selectin), flow cytometry ([5]; 4 hr after stent implantation): 8.9 ± 3.3
- CD62p (P-selectin), flow cytometry ([5]; 24 hr after stent implantation): 7.9 ± 1.4
- CD62p (P-selectin), flow cytometry [5, 15]: 5.2 ± 2.3
- CD62p (P-selectin), flow cytometry [5, 16]: 10.8 ± 4.1
- Platelet inhibition by surface expression of P-selectin, compared with clopidogrel [5, 17]: more potent platelet inhibition
- CD42 (GP-Ib), flow cytometry ([6]; 4 hr after stent implantation): 138.7 ± 38.3
- CD42 (GP-Ib), flow cytometry ([6]; 24 hr after stent implantation): 154.0 ± 39.6
- CD42 (GP-Ib), flow cytometry [6, 15]: 110.0 ± 47.7
- CD42 (GP-Ib), flow cytometry [6, 16]: 145.9 ± 35.5
- Platelet inhibition by surface expression of GPIb, compared with clopidogrel [6, 17]: more potent platelet inhibition
- WEDE15 (PAR-1/PAR-4), flow cytometry ([7]; 4 hr after stent implantation): 17.0 ± 6.2
- WEDE15 (PAR-1/PAR-4), flow cytometry ([7]; 24 hr after stent implantation): 19.6 ± 8.4
- WEDE15 (PAR-1/PAR-4), flow cytometry [7, 15]: 15.3 ± 5.9
- WEDE15 (PAR-1/PAR-4), flow cytometry [7, 16]: 37.0 ± 9.8
- SPAN12 (PAR-1/PAR-4), flow cytometry ([8]; 4 hr after stent implantation): 13.3 ± 2.5
- SPAN12 (PAR-1/PAR-4), flow cytometry ([8]; 24 hr after stent implantation): 12.0 ± 2.7
- SPAN12 (PAR-1/PAR-4), flow cytometry [8, 15]: 6.6 ± 1.7
- SPAN12 (PAR-1/PAR-4), flow cytometry [8, 16]: 19.5 ± 5.4
- Platelet inhibition by collagen-induced aggregation, compared with clopidogrel [14]: more potent platelet inhibition
- Thrombospondin, flow cytometry ([9]; 4 hr after stent implantation): 6.4 ± 1.1
- Thrombospondin, flow cytometry ([9]; 24 hr after stent implantation): 6.7 ± 1.7
- Thrombospondin, flow cytometry [9, 15]: 4.0 ± 0.7
- Thrombospondin, flow cytometry [9, 16]: 7.3 ± 2.2
- Platelet inhibition by surface expression of thrombospondin receptor, compared with clopidogrel [9, 17]: more potent platelet inhibition
